Results from patent US12564631B2, “Phytosphingosine derivatives as adjuvants in immune stimulation” (Helmholtz-Zentrum für Infektionsforschung GmbH, priority 2020, dated 2026).
Entries after “also recorded” stand apart in the source; their conditions may differ.

Legend:
CD19+ B cells = assay: CFSE proliferation assay of CD19+ B cells after interaction with Ova/adjuvant-matured bone marrow derived DCs (APC); assay type: cell-based, mice; details: DCs restimulated with Ovalbumin + 10 μg compound for 24 h; interaction with APC for 5 days; FIG. 3A
Experimental: FIG. 3A: Cell proliferation tracked by CFSE dilution of B cells after interaction with matured Antigen Presenting Cells (APC). With every cell division, the CFSE signal strength is approximately halved. The observed cell numbers indicate the ratio of proliferating viable CD19+ B cells.
(§1) In order to assess the properties of the inventive compounds in antigen-specific T and B cell stimulation, the compounds were administered to cultured bone marrow cells in a CFSE assay.
(§2) Briefly, femurs and Tibiae of female 4-12 weeks old C57Bl6 (or BALB/c for TCR HA) were removed and purified from the surrounding muscle tissue (Kleenex tissues). Intact Bones were left in 70% ethanol for 2-5 min for disinfection. Both ends were cut with scissors and the bone marrow were flushed with PBS using a syringe with a 0.45 mm diameter needle, clusters were disintegrated by vigorous pipetting.
(§3) In order to obtain activated antigen presenting dendritic cells (DCs), bone marrow cells were cultured with GM-CSF. On Day 0, cells were seeded in a concentration of 2×10^6 cells per 100 mm dish (bacteriological petri dishes) in 10 ml RPMI-10 (100 U Pen/100 μg Strept/2 mM Glutamin/50 μm ß-Mercaptoethanol/10% FCS heat-inactivated and filtered 0.22 μm Filter) containing 200 Units GM-CSF. On Day 3 another 10 ml RPMI-10 containing 200 U GM-CSF were added to the plates. On Day 6 half of the culture supernatants (10 ml) were collected, centrifuged and the cell pellet resuspended in 10 ml fresh RPMI-10/200 U GM-CSF and given back into the original plates.
(§4) Subsequently, the DCs were incubated with Ovalbumin (as antigen) alone or co-administered with known adjuvants, such as α-GalCerMPEG, aßGalCerMPEG or TLR2/6 ligand (BPPcysMPEG), or the novel phytosphingosine derivatives of the present invention. The activation of DCs was controlled by FACS analysis of different CD markers, such as CD40, CD54, CD80, CD86, CD83, MHCI and MHCII.
(§5) The effect of the compounds of the present invention was then ascertained via co-incubation of naïve T or B cells, obtained from mice (OTI or OTII mice) with previous exposure to the Ova antigen, with DCs that had been treated with the compounds of the invention.
CFSE staining of the CD4+ or CD8+ naïve T cells is then carried out according to standard procedures. Subsequently, 2-5×10^4 DCs (as mature antigen presenting cells APCs) are incubated with 4×10^5 CFSE+ T cells (OTI or OTII) per well (ratio DC/T cells is […]). A CFSE proliferation assay is then conducted, using on Day +5 or on Day +7 a FACS analysis (CFSE/LD/CD4/CD8/CD19/Thy1.1), providing a cell count for the desired cell type based on CFSE. With every cell division, the CFSE signal strength is approximately halved. The cells marked with CFSE can therefore be used to determine the proliferation of CD19+ B cells, CD4+ or CD8+ T cells in response to treatment with activated DCs, that were treated with or without the compounds of the invention.
As is shown in FIG. 3A, cell proliferation of B cells is tracked by CFSE dilution after interaction with APCs. With every cell division, the CFSE signal strength is approximately halved. Therefore, the compounds of the invention show an effect on inducing antigen specific CD19+ cell proliferation.
On day −1, mature DCs were restimulated with Ovalbumin (antigen) co-administered with 10 μg of the different novel phytosphingosine derivatives (0964-1917) or with positive controls (α-GalCerMPEG, aßGalCerMPEG, CDA or BPPcysPEGdef) for 24 h.

splenocytes = assay: Unspecific proliferation assay of splenocytes ([3H]thymidine incorporation); assay type: cell-based, mice; details: for induction of unspecific proliferation in splenocytes: summary statement
Experimental: FIG. 2: Analysis of unspecific proliferative responses of murine cells stimulated without or with enhanced concentrations of the Phytosphingosine-compounds. Splenocytes from mice were re-stimulated for 96 h with different concentrations of adjuvant (1, 10 and 20 μg/ml). The results are presented by are expressed (A-C) as counts per minute (cpm) and (D-F) stimulation index (SI) being the ratio of [^3H]-thymidine uptake of stimulated versus non-stimulated samples. (A) and (D) show data for α-GalCer controls, (B) and (E) show data for IPB1901-1910, and (C) and (F) show data for IPB1911-1917.
In order to assess the properties of the inventive compounds in antigen-unspecific immune response stimulation the compounds were administered to splenocytes in an established proliferation assay.
For the proliferation assay, splenocytes (5×10^6 cells/ml) are seeded at 100 μl per well in a U-bottomed 96-well microtiter plate (Sarstedt Inc., Newton, N.C.) and cultured in quadruplicates 4 days in the presence of enhanced concentrations of adjuvant (1, 10 and 20 μg/ml)), 5 μg/ml of Concanavalin A (max); or medium alone. Eighteen hours before harvesting, 1 μCi of [3H]thymidine (Amersham International, Freiburg, Germany) is added to each well. Cells are harvested on paper filters (Filtermat A; Wallac, Freiburg, Germany) using a cell harvester (Inotech, Wohlen, Switzerland) and the incorporation of [3H] thymidine into the DNA of proliferating cells is determined using a scintillation counter (Wallac 1450, Micro-Trilux).

CD8+ T cells = assay: CFSE proliferation assay of CD8+ T cells after interaction with Ova/adjuvant-matured bone marrow derived DCs (APC); assay type: cell-based, mice; details: for effect to induce antigen specific CD8+ T cell proliferation: DCs restimulated with Ovalbumin + 10 μg compound for 24 h, interaction with APC for 5 days, FIG. 3C
Description: FIG. 3C: Cell proliferation tracked by CFSE dilution of CD8+ T cells after interaction with matured Antigen Presenting Cells (APC). With every cell division, the CFSE signal strength is approximately halved. The shown cell numbers indicate the ratio of proliferated live CD8+ T cells
(§6) FIG. 4: Effect after treatment with IPB 0964-1917—Cell proliferation tracked by CFSE loss of T cells after interaction with matured Antigen Presenting Cells (APC). With every cell division, the CFSE signal strength is reduced. The shown cell numbers indicate the ratio of proliferating T and B cells (7 steps are shown). (A) Numbers of CD4+ T cells are shown at different proliferation steps up to 7 days measuring the loss of CFSE. Naïve cells were treated with one of IPB1901-1912 together with DCs activated with Ova prior to the CFSE assay. (B) Numbers of CD4+ T cells are shown at different proliferation steps up to 7 days measuring the loss of CFSE. Naïve cells were treated with one of IPB2033-2044 together with DCs activated with Ova prior to the CFSE assay. (C) Numbers of CD8+ T cells are shown at different proliferation steps up to 7 days measuring the loss of CFSE. Naïve cells were treated with one of IPB1901-1912 together with DCs activated with Ova prior to the CFSE assay. (D) Numbers of CD8+ T cells are shown at different proliferation steps up to 7 days measuring the loss of CFSE. Naïve cells were treated with one of IPB2033-2044 together with DCs activated with Ova prior to the CFSE assay.
as §1, §2, §3, §4, §5
(§7) Naïve T cells were derived from LN/spleen from OTI or OTII mice. The MagniSort™ Mouse CD4 naïve or CD8 naïve T cell Enrichment Kit is designed for the magnetic separation of CD4 or CD8 naïve T cells by negative selection from mouse spleens or lymph nodes utilizing a biotinylated antibody cocktail and streptavidin-coated magnetic beads. Undesired cells are bound by antibody (Anti-Mouse CD8 or CD4/CD11b CD19/CD24/CD44/CD45R(B220)/CD49b(Integrin α 2)/Ly-6G (Gr-1)/γδ TCR/TER-119) and then magnetic beads that, when placed in a magnetic field, leave CD4 or CD8 naïve T cells untouched and free in solution. […]

CD4+ T cells = assay: CFSE proliferation assay of CD4+ T cells after interaction with Ova/adjuvant-matured bone marrow derived DCs (APC); assay type: cell-based, mice; details: for capacity to induce antigen specific CD4+ T cell proliferation: DCs restimulated with Ovalbumin + 10 μg compound for 24 h, interaction with APC for 5 days, FIG. 3B
Description: FIG. 3B: Cell proliferation tracked by CFSE dilution of CD4+ T cells after interaction with matured Antigen Presenting Cells (APC). With every cell division, the CFSE signal strength is approximately halved. The shown cell numbers indicate the ratio of proliferated live CD4+ T cells.
as §6, §1, §2, §3, §4, §5, §7

Ova-specific IgG = Ova-specific IgG titer (ELISA) in sera of mice immunized with Ovalbumin plus adjuvant; assay type: in vivo; details: Ovalbumin 30 μg + adjuvant 15 μg, days 0, 14, 28, sera 14 days after last immunization
Experimental: FIG. 5: Immunization protocol—Administration (intramuscular route) of Ovalbumin with adjuvants. Ovalbumin (30 μg) was co-administered (intramuscular) without or with different adjuvants, such as IPB 2033-2044, c-di-AMP or aßGalCerMPEG (15 μg), on days 0, 14 and 28.
FIG. 7: Systemic humoral immune responses induced in mice. Shown is the IgG titer as a readout of systemic humoral immune responses induced in mice after three immunizations with Ovalbumin co-administered with different adjuvants via intramuscular route. Ova-specific IgG titers were measured via ELISA in sera 14 days after the last immunization.
FIG. 9: Immunization protocol—Administration (intranasal route) of Ovalbumin with adjuvants. Immunization protocol: Mucosal administration (intranasal (i.n.) route) of Ovalbumin (30 μg) co-administered without or with different adjuvants, such as IPB 2033-2044, c-di-AMP or aßGalCerMPEG (15 μg), on days 0, 14 and 28.
FIG. 11: Systemic humoral immune responses induced in mice. Shown is the IgG titer as a readout of systemic humoral immune responses induced in mice after three immunizations with Ovalbumin co-administered with different adjuvants via intranasal route. Ova-specific IgG titers in sera 14 days after the last immunization.
Groups of mice (3-5 animals) were immunized either intranasal (i.n.) or intramuscular (i.m.) on days 0, 14 and 281 with PBS, or with Ovalbumin (30 μg); the latter were administered alone or with different adjuvants—c-di-AMP, aßGalCerMPEG or IPB 2033 to 2044—made up to a maximal volume of 20 μl (i.n.) or 50 μl (i.m.) in PBS.
Blood samples were collected on days 1, 14, 28 and 42 via retro-bulbar bleeding. Spleens of vaccinated mice were aseptically removed. For the subsequent methods, cell suspensions of spleens (n=5) of each immunized groups were prepared and erythrocytes were lysed. These splenocyte pools of each group were cultured in the presence of different concentrations of Ovalbumin; controls received 5 μg/mL concanavalin A. The incorporation of [^3H] thymidine into the DNA of proliferating cells was determined using a scintillation counter (Wallac 1450, Micro-Trilux).
The Ova-specific antibodies were determined in serum samples by ELISA. Endpoint titers were expressed as reciprocal values of the last dilution, which gave an optical density at 405 nm of two times above the values of the negative controls. For calculation purposes, negative samples were assigned an arbitrary titer of the lowest dilution measured.
As described in the protocols above, groups of mice (3-5 animals) were immunized either intranasal (i.n.) or intramuscular (i.m.) on days 0, 14 and 281 with PBS, or with Ovalbumin (30 μg); the latter were administered alone or with different adjuvants—c-di-AMP, aßGalCerMPEG or IPB 2033 to 2044—is shown in FIG. 5-11, intramuscular.

SMILES | capacity to induce antigen specific CD19+ B cell proliferation (CD19+ B cells) | induction of unspecific proliferation in splenocytes (splenocytes) | effect to induce antigen specific CD8+ T cell proliferation (CD8+ T cells) | Stimulation index (SI) (splenocytes; splenocytes restimulated 96 h with 1, 10 and 20 μg/ml compound, ratio of [3H]-thymidine uptake of stimulated versus non-stimulated samples, FIG. 2E/2F) | capacity to induce antigen specific CD4+ T cell proliferation (CD4+ T cells) | stimulation of antigen specific IgG production compared to control aßGalCerMPEG+ova (Ova-specific IgG; intramuscular (i.m.), FIG. 7) | stimulation of antigen specific IgG production compared to control aßGalCerMPEG+ova (Ova-specific IgG; intranasal (i.n.), FIG. 11) | stimulating effect of CD8+ T cells versus controls with only antigen Ova (CD8+ T cells; CFSE loss up to 7 days, DCs activated with Ova + 10 μg compound, FIG. 4C/4D) | stimulating effect of CD4+ T cells versus controls with only antigen Ova (CD4+ T cells; CFSE loss up to 7 days, DCs activated with Ova + 10 μg compound, FIG. 4A/4B)
CCCCCCCCCCCCCCNC(=O)CN(C(=O)[C@@H](Cc1ccccc1)NC(C)=O)[C@@H](CO[C@H]1OC(CO)[C@H](O)C(O)C1O)[C@H](O)[C@H](O)CCCCCCCCCCCCCC (stereo partly shown) [IPB 1904] | particularly high capacity; also recorded: beneficial capacity | beneficial induction of unspecific proliferation |  |  |  |  |  |  | 
CCCCCCCCCCCCCCCCCCCCCCCC(=O)N(CC(=O)NCCC(=O)O)[C@@H](CO[C@H]1OC(CO)[C@H](O)C(O)C1O)[C@H](O)[C@H](O)CCCCCCCCCCCCCC (stereo partly shown) [IPB 1910] |  | beneficial induction of unspecific proliferation | strong effect; also recorded: beneficial effect | ca. 2 | high capacity; also recorded: beneficial capacity |  |  |  | 
CCCCCCCCCCCCCCCCCCCCCCCC(=O)N(CC(=O)NCC(OC)OC)[C@@H](CO[C@H]1OC(CO)[C@H](O)C(O)C1O)[C@H](O)[C@H](O)CCCCCCCCCCCCCC (stereo partly shown) [IPB 1911] |  | beneficial induction of unspecific proliferation | strong effect; also recorded: beneficial effect |  | high capacity; also recorded: beneficial capacity |  |  |  | 
CCCCCCCCCCCCCCCCCCCCCCCCCC(=O)N(CC(=O)NC1CCCCC1)[C@@H](CO[C@H]1OC(CO)[C@H](O)C(O)C1O)[C@H](O)[C@H](O)CCCCCCCCCCCCCC (stereo partly shown) [IPB 2039] |  |  |  |  |  | improved stimulation | improved stimulation | stimulating effect of CD8+ T cells beyond controls | stimulating effect of CD4+ T cells beyond controls
